Measurements published in patent US12522583B2, “Benzimidazole derivatives and aza-benzimidazole derivatives as Janus kinase 2 inhibitors and uses thereof” (Dana-Farber Cancer Institute, Inc., priority 2018, dated 2026).

Legend:
Experiment in all cases: KINOMEscan
Type in all cases: binding
Conditions in all cases: read-out: percent control
[1] = target: MAP4K4 (Homo sapiens (Human), UniProt O95819)
Description: (§1) Example 2. In Vitro Kinase Selectivity Profiling of the Compounds of the Present Disclosure

[2] = target: LATS2 (Homo sapiens (Human), UniProt Q9NRM7)
Description: as §1

[3] = target: INSRR (Homo sapiens (Human), UniProt P14616)
INSRR, sequence (P14616 27-1297): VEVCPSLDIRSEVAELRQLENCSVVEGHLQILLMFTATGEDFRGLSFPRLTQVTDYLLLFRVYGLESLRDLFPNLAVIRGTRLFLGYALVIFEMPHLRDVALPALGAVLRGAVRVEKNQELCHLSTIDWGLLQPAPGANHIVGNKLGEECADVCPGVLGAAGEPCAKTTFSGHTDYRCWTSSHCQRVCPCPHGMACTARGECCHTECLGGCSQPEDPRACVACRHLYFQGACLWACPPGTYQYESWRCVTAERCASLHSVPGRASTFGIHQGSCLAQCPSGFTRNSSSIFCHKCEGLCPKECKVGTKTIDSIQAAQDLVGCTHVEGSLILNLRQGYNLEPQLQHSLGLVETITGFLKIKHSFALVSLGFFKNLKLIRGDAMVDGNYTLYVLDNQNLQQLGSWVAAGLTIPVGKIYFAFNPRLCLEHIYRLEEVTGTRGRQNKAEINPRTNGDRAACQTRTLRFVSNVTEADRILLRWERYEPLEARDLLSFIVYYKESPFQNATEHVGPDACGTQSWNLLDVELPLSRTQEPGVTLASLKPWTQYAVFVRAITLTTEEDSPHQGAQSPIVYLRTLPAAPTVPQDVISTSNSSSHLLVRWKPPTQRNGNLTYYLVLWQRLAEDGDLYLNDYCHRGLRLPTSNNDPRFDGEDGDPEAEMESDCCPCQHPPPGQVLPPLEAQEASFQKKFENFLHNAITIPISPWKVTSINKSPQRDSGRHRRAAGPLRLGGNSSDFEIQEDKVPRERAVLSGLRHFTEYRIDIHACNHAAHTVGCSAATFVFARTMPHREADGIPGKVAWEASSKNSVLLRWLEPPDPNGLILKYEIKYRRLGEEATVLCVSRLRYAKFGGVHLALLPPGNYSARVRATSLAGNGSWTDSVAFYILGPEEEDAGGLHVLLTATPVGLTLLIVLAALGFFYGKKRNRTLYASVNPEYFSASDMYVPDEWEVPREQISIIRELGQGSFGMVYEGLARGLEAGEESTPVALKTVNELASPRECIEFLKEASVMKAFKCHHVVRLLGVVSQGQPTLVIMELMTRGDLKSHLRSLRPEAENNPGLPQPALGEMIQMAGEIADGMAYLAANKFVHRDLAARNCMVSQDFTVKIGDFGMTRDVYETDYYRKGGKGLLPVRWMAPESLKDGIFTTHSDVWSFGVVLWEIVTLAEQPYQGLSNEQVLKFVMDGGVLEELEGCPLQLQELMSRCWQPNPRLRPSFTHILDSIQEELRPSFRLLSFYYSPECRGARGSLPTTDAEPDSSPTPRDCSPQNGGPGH
Description: as §1

[4] = target: ACVRL1 (Homo sapiens (Human), UniProt P37023)
ACVRL1, sequence (P37023 22-503): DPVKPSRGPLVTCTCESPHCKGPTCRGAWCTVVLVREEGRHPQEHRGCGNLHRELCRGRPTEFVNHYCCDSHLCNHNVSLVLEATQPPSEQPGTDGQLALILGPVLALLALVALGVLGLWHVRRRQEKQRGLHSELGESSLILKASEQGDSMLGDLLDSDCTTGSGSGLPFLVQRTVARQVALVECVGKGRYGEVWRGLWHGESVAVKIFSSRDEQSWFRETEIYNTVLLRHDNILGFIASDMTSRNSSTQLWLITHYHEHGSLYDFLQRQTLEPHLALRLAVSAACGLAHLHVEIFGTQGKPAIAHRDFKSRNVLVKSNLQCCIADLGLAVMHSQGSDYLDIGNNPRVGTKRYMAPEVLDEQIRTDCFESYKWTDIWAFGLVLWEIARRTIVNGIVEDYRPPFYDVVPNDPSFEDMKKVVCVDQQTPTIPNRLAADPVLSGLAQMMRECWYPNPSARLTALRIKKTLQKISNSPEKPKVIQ
Description: as §1

[5] = target: NEK7 (Homo sapiens (Human), UniProt Q8TDX7)
Description: as §1

[6] = target: SGK3 (Homo sapiens (Human), UniProt Q96BR1)
Description: as §1

[7] = target: FLT1 (Homo sapiens (Human), UniProt P17948)
FLT1, sequence (P17948 27-1338): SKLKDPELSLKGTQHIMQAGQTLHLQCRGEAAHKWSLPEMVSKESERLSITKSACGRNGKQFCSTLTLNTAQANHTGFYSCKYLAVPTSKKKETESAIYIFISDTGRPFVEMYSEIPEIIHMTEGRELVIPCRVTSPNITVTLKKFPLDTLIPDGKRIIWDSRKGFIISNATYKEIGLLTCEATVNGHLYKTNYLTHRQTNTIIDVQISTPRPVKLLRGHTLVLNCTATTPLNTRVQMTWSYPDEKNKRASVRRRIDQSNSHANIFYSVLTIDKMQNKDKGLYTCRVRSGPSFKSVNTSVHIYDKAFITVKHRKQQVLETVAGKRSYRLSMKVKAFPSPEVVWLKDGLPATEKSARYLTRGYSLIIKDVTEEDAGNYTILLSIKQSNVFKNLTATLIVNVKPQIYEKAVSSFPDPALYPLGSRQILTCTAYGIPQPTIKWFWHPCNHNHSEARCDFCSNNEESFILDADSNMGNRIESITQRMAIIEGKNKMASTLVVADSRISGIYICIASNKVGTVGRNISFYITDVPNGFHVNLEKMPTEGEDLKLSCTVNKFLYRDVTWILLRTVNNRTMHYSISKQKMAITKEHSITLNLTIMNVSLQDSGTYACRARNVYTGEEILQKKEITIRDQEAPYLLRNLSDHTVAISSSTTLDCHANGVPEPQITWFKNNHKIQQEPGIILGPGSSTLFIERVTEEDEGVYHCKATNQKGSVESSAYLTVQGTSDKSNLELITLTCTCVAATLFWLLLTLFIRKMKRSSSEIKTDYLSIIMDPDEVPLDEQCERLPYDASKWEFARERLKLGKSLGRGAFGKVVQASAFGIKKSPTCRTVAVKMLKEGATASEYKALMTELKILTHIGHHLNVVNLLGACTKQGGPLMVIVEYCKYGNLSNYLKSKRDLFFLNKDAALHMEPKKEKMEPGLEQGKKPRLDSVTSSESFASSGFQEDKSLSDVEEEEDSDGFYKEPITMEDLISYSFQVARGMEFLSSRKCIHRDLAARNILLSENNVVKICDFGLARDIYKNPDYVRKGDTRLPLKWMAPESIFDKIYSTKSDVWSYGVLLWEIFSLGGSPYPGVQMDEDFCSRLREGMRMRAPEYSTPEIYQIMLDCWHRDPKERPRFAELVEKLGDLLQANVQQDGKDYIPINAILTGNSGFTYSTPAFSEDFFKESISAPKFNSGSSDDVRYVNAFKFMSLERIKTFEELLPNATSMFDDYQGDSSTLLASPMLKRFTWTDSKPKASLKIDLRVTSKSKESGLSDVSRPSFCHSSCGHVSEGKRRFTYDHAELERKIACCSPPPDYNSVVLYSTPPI
Description: as §1

[8] = target: TNNI3K (Homo sapiens (Human), UniProt Q59H18)
Description: as §1

[9] = target: PHKG1 (Homo sapiens (Human), UniProt Q16816)
Description: as §1

[10] = target: ULK1 (Homo sapiens (Human), UniProt O75385)
Description: as §1

[11] = target: WEE2 (Homo sapiens (Human), UniProt P0C1S8)
Description: as §1

[12] = target: PRKG1 (Homo sapiens (Human), UniProt Q13976)
Description: as §1

[13] = target: PLK3 (Homo sapiens (Human), UniProt Q9H4B4)
Description: as §1

[14] = target: PRKD3 (Homo sapiens (Human), UniProt O94806)
Description: as §1

[15] = target: EGFR(G719S) (Homo sapiens (Human), UniProt P00533, G719S)
Description: as §1

[16] = target: PIK4CB (Homo sapiens (Human), UniProt Q9UBF8)
Description: as §1

[17] = target: EPHA2 (Homo sapiens (Human), UniProt P29317)
Description: as §1

[18] = target: ALK(C1156Y) (Homo sapiens (Human), UniProt Q9UM73, C1156Y)
Description: as §1

[19] = target: FER (Homo sapiens (Human), UniProt P16591)
Description: as §1

[20] = target: NIK (Homo sapiens (Human), UniProt Q99558)
NIK, sequence (Q99558 whole entry): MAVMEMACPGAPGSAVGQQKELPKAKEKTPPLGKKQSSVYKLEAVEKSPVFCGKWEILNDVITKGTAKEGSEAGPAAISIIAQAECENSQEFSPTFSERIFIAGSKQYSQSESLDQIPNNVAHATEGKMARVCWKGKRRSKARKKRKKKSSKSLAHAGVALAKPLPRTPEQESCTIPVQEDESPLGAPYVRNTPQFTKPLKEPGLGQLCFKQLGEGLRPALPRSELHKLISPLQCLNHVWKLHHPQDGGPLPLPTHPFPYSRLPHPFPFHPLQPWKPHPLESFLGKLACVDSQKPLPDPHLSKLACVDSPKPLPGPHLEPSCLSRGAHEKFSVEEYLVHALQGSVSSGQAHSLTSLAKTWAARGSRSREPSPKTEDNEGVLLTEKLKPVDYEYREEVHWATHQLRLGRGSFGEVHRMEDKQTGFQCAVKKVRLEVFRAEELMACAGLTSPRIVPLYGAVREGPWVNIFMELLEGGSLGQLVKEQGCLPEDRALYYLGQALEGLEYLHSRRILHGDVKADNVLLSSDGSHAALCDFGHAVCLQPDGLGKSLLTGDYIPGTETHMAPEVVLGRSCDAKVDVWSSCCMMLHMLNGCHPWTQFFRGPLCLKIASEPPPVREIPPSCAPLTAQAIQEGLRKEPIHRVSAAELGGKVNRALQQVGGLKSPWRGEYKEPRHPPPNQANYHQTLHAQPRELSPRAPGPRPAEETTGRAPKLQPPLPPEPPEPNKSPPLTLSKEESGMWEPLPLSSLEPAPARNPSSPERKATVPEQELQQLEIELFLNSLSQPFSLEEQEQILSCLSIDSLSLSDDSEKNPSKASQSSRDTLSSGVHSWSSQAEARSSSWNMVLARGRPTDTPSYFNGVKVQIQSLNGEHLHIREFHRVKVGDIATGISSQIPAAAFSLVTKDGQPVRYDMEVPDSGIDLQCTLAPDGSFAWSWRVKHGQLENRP
Description: as §1

[21] = target: BMPR2 (Homo sapiens (Human), UniProt Q13873)
Description: as §1

[22] = target: ERK1 (Homo sapiens (Human), UniProt P27361)
ERK1, sequence (P27361 whole entry): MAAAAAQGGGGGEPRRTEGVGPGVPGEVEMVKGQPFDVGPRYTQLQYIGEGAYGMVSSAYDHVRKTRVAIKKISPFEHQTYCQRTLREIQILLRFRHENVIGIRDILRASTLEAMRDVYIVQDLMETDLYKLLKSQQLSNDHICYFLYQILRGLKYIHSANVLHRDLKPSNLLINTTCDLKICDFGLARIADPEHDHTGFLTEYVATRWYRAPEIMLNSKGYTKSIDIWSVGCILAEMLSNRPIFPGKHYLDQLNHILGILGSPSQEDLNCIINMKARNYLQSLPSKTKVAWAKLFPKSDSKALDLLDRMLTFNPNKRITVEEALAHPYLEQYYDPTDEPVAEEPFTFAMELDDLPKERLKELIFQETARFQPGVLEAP
Description: as §1

[23] = target: TIE1 (Homo sapiens (Human), UniProt P35590)
Description: as §1

[24] = target: DDR2 (Homo sapiens (Human), UniProt Q16832)
Description: as §1

[25] = target: MKNK1 (Homo sapiens (Human), UniProt Q9BUB5)
Description: as §1

[26] = target: EPHA1 (Homo sapiens (Human), UniProt P21709)
Description: as §1

[27] = target: BRSK2 (Homo sapiens (Human), UniProt Q8IWQ3)
Description: as §1

[28] = target: STK36 (Homo sapiens (Human), UniProt Q9NRP7)
Description: as §1

[29] = target: PAK6 (Homo sapiens (Human), UniProt Q9NQU5)
Description: as §1

[30] = target: AURKB (Homo sapiens (Human), UniProt Q96GD4)
Description: as §1

[31] = target: EPHA3 (Homo sapiens (Human), UniProt P29320)
Description: as §1

[32] = target: PHKG2 (Homo sapiens (Human), UniProt P15735)
Description: as §1

[33] = target: TXK (Homo sapiens (Human), UniProt P42681)
Description: as §1

[34] = target: VRK2 (Homo sapiens (Human), UniProt Q86Y07)
Description: as §1

[35] = target: PIK3CG (Homo sapiens (Human), UniProt P48736)
Description: as §1

[36] = target: FLT3(D835V) (Homo sapiens (Human), UniProt P36888, D835V)
Description: as §1

[37] = target: WNK4 (Homo sapiens (Human), UniProt Q96J92)
Description: as §1

[38] = target: PKAC-beta (Homo sapiens (Human), UniProt P22694)
Description: as §1

[39] = target: AURKA (Homo sapiens (Human), UniProt O14965)
Description: as §1

[40] = target: LRRK2 (Homo sapiens (Human), UniProt Q5S007)
Description: as §1

[41] = target: PRKCD (Homo sapiens (Human), UniProt Q05655)
PRKCD, sequence (Q05655 whole entry): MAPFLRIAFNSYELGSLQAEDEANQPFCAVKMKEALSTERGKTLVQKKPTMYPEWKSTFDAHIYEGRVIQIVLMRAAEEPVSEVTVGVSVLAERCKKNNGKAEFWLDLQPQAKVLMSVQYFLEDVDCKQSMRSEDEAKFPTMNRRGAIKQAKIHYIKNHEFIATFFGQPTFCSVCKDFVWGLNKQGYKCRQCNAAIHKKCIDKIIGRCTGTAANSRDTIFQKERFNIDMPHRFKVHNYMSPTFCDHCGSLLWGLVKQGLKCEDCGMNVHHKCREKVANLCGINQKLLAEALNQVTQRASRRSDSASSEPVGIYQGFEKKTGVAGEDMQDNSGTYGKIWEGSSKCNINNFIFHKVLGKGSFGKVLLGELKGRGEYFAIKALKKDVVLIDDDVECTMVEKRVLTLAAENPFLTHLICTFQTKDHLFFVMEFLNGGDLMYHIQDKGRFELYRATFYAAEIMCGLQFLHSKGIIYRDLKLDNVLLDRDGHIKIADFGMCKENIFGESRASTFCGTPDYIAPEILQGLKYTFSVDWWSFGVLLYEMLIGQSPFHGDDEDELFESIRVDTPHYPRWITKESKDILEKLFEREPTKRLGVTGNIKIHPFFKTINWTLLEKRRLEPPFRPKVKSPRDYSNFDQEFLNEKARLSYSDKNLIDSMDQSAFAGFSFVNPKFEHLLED
Description: as §1

CCN1CCN(Cc2ccc(Nc3nc4ccc(Oc5ccnc(NC(C)=O)c5)cc4n3C)cc2C(F)(F)F)CC1 [Compound I-2]
remaining binding at 1 µM [1]: 100% | remaining binding at 1 µM [2]: 100% | remaining binding at 1 µM [3]: 5.3% | remaining binding at 1 µM [4]: 85% | remaining binding at 1 µM [5]: 88% | remaining binding at 1 µM [6]: 93% | remaining binding at 1 µM [7]: 6.3% | remaining binding at 1 µM [8]: 23% | remaining binding at 1 µM [9]: 94% | remaining binding at 1 µM [10]: 100% | remaining binding at 1 µM [11]: 100% | remaining binding at 1 µM [12]: 100% | remaining binding at 1 µM [13]: 81% | remaining binding at 1 µM [14]: 84% | remaining binding at 1 µM [15]: 96% | remaining binding at 1 µM [16]: 99% | remaining binding at 1 µM [17]: 100% | remaining binding at 1 µM [18]: 96% | remaining binding at 1 µM [19]: 91% | remaining binding at 1 µM [20]: 100% | remaining binding at 1 µM [21]: 100% | remaining binding at 1 µM [22]: 100% | remaining binding at 1 µM [23]: 11% | remaining binding at 1 µM [24]: 0% | remaining binding at 1 µM [25]: 95% | remaining binding at 1 µM [26]: 100% | remaining binding at 1 µM [27]: 100% | remaining binding at 1 µM [28]: 79% | remaining binding at 1 µM [29]: 93% | remaining binding at 1 µM [30]: 49% | remaining binding at 1 µM [31]: 52% | remaining binding at 1 µM [32]: 85% | remaining binding at 1 µM [33]: 100% | remaining binding at 1 µM [34]: 54% | remaining binding at 1 µM [35]: 100% | remaining binding at 1 µM [36]: 51% | remaining binding at 1 µM [37]: 93% | remaining binding at 1 µM [38]: 94% | remaining binding at 1 µM [39]: 69% | remaining binding at 1 µM [40]: 100% | remaining binding at 1 µM [41]: 92%

CCN1CCN(Cc2ccc(Nc3nc4ccc(Oc5ccnc(NC(C)=O)c5)c(C)c4n3C)cc2C(F)(F)F)CC1 [Compound I-6, N-(4-(2-(4-((4-ethylpiperazin-1-yl)methyl)-3-(trifluoromethyl)phenylamino)-1,7-dimethyl-1H-benzo[d]imidazol-6-yloxy)pyridin-2-yl)acetamide]
remaining binding at 1 µM [1]: 93% | remaining binding at 1 µM [2]: 100% | remaining binding at 1 µM [3]: 5.8% | remaining binding at 1 µM [4]: 93% | remaining binding at 1 µM [5]: 95% | remaining binding at 1 µM [6]: 100% | remaining binding at 1 µM [7]: 4.2% | remaining binding at 1 µM [8]: 51% | remaining binding at 1 µM [9]: 91% | remaining binding at 1 µM [10]: 56% | remaining binding at 1 µM [11]: 100% | remaining binding at 1 µM [12]: 98% | remaining binding at 1 µM [13]: 93% | remaining binding at 1 µM [14]: 92% | remaining binding at 1 µM [15]: 100% | remaining binding at 1 µM [16]: 73% | remaining binding at 1 µM [17]: 68% | remaining binding at 1 µM [18]: 92% | remaining binding at 1 µM [19]: 100% | remaining binding at 1 µM [20]: 100% | remaining binding at 1 µM [21]: 100% | remaining binding at 1 µM [22]: 100% | remaining binding at 1 µM [23]: 4% | remaining binding at 1 µM [24]: 0% | remaining binding at 1 µM [25]: 80% | remaining binding at 1 µM [26]: 46% | remaining binding at 1 µM [27]: 74% | remaining binding at 1 µM [28]: 92% | remaining binding at 1 µM [29]: 90% | remaining binding at 1 µM [30]: 81% | remaining binding at 1 µM [31]: 68% | remaining binding at 1 µM [32]: 100% | remaining binding at 1 µM [33]: 84% | remaining binding at 1 µM [34]: 100% | remaining binding at 1 µM [35]: 95% | remaining binding at 1 µM [36]: 40% | remaining binding at 1 µM [37]: 82% | remaining binding at 1 µM [38]: 86% | remaining binding at 1 µM [39]: 98% | remaining binding at 1 µM [40]: 86% | remaining binding at 1 µM [41]: 89%
